Data set [1] deals with NCI-H460. As to the kind of experiment: Induction of apoptosis in human NCI-H460 cells assessed as early apoptotic cells at 5 uM measured after 72 hrs by Annexin V-FITC and propidium iodide staining based flow cytometry analysis (Rvb= 6.61%). The class given is functional. On the technique in general: In flow cytometry, cells or beads pass a laser one at a time.
The test system of data set [2] is NCI-H460. As to the kind of experiment: Reduction in VEGFR2 mRNA expression in human NCI-H460 cells at 10 to 20 uM by real-time qPCR analysis. Format: functional, cell-based. The note with it: dose 10-20 µM. On the technique in general: Quantitative PCR measures a nucleic acid by following its amplification.
For data set [3], the target named is MAP kinase p38 (Homo sapiens) (UniProt O15264+Q15759+Q16539+P53778). Kind of data set: Inhibition of p38 MAPK phosphorylation in human NCI-H460 cells at 20 uM measured after 72 hrs by western blot analysis. The class given is cell-based.
The subject of data set [4] is NCI-H460. As to the kind of experiment: Cell cycle arrest in human NCI-H460 cells assessed as accumulation of cells in S phase at 20 uM measured after 72 hrs by propidium iodide/RNase staining based flow cytometry analysis (Rvb= 26.87%). The class given is functional.
In the next data set the test system is PNT2. Kind of data set: Cytotoxicity against human PNT2 cells assessed as reduction in cell viability at 4 times IC50 measured after 72 hrs by crystal violet staining based assay. The note with it: pnt2, 72 h.
In data set [5] the test system is NCI-H460. Kind of data set: Cell cycle arrest in human NCI-H460 cells assessed as accumulation of cells in G1 phase at 10 uM measured after 72 hrs by propidium iodide/RNase staining based flow cytometry analysis (Rvb= 62.9%). The class given is functional.
In data set [6] the test system is NCI-H460. Kind of data set: Effect on total ERK expression in human NCI-H460 cells at 1 to 20 uM measured after 72 hrs by western blot analysis. The class given is functional, cell-based. The note with it: dose 1-20 µM. A general note: A western blot detects proteins with antibodies after separation by electrophoresis.
Data set [7] deals with NCI-H460. Kind of data set: Cell cycle arrest in human NCI-H460 cells assessed as accumulation of cells in G2/M phase at 5 uM measured after 72 hrs by propidium iodide/RNase staining based flow cytometry analysis (Rvb= 10.22%). Format: functional.
The test system of the next data set is CAKI-1. Kind of data set: Antiproliferative activity against human CAKI-1 cells assessed as cell growth at 10 uM incubated for 48 hrs by sulforhodamine B assay relative to control. The class given is functional. The note with it: read-out: Activity.
In data set [8] the test system is NCI-H460. Kind of data set: Inhibition of colony formation in human NCI-H460 cells assessed as reduction in colony formation incubated for 15 days and subsequent media replacement with compound for every 72 hrs by crystal violet staining based assay. Conditions: dose 5-20 µM, time 15.0 day. Format: functional, cell-based.
For data set [9], the system named is NCI-H460. Kind of data set: Induction of apoptosis in human NCI-H460 cells assessed as late apoptotic cells at 10 uM measured after 72 hrs by Annexin V-FITC and propidium iodide staining based flow cytometry analysis (Rvb= 6.93%). Format: functional.
Data set [10] relates to NCI-H460. As to the kind of experiment: Antimigratory activity against human NCI-H460 cells assessed as reduction in VEGF expression level measured after 72 hrs by western blot analysis. The class given is functional, cell-based. The note with it: dose 1-20 µM.
Data set [11] has as its system NCI-H460. As to the kind of experiment: Induction of apoptosis in human NCI-H460 cells assessed as late apoptotic cells at 20 uM measured after 72 hrs by Annexin V-FITC and propidium iodide staining based flow cytometry analysis (Rvb= 6.93%). Format: functional.
The subject of data set [12] is NCI-H460. Kind of data set: Cell cycle arrest in human NCI-H460 cells assessed as accumulation of cells in G1 phase at 5 uM measured after 72 hrs by propidium iodide/RNase staining based flow cytometry analysis (Rvb= 62.9%). The class given is functional.

Data on 1 molecule can be found in ChEMBL document CHEMBL5055675, “Apoptosis Inducing 1,3,4-Oxadiazole Conjugates of Capsaicin: Their In Vitro Antiproliferative and In Silico Studies” (ACS Med Chem Lett, 2021).

Activity calls are given as the source filed them. No cut-off for these calls is given here.

`COc1cc(CNC(=O)CCCC/C=C/C(C)C)ccc1OCc1nnc(Nc2ccc([N+](=O)[O-])cc2)o1`: the Activity with NCI-H460 [1] is recorded as 5.45%; in the data set on NCI-H460 [4], 34.83%; in the data set with PNT2, “Non-Toxic”; in the data set on NCI-H460 [5], 59.13%; in the data set with NCI-H460 [7], 10.03%; in the data set on NCI-H460 [9], 9.27%. In addition, the Activity result in the data set on NCI-H460 [10] is “Dose-dependent effect”; in the data set on NCI-H460 [11], 17.44%; in the data set on NCI-H460 [12] it was 61.8%. Besides, the inhibition entry (with NCI-H460 [2]; in data set [3]) was “Active” throughout. In addition, the outcome in the data set on NCI-H460 [6] was inactive. The growth at 10 µM in the data set on CAKI-1 was determined as 33.6%. Also, in the data set with NCI-H460 [8], the inhibition result was “Dose-dependent effect”.
